Results from patent US11878978B1, “Pyrrolo[2,3-c]quinoline compounds as CK2 inhibitors” (KING FAISAL UNIVERSITY, priority 2023, dated 2024).

How the values were obtained:
A375 (melanoma) = assay: In vitro cytotoxic activity assay (MTT), A375; format: cell-based; settings: Homo sapiens, A-375; A375 (melanoma) cells, exposed for 96 hours; read-out: IC50, concentration of compound eliciting a 50% inhibition of cell proliferation
Method: (§1) Compounds 1-12 were screened for their in vitro cytotoxic activity utilizing a 3-(4,5-dimethyl-thiazol-2-yl)-2,5-diphenyltetrazolium bromide (MTT) assay against selected cancer human cell lines consisting of PC3 (prostate), HCT116 (colon), A375 (melanoma), H1299 (lung), MIAPaCa-2 (pancreas), HL60 (leukemia), MCF7 (breast), MDA-MB-231 (breast) (T. Mosmann, J. Immunol. Meth., 1983, 65, 55-63). The cells were cultured at 37° C. in RMPI1640 medium supplemented with 10% fetal bovine serum, 50 IU/mL penicillin, and 50 μg/mL streptomycin in a 5% CO2 incubator. All cells were sub-cultured 3 times/week by trypsinisation. Viable cells were seeded and allowed to adhere for 12 h before a test drug was added in 96-well plates at an initial density of 1.0×10^5 cells/mL. Tumour cell lines were separately exposed to various concentrations of the tested compounds followed by incubation at a temperature of 37° C. during 96 h inside a medium of fresh RMPI 1640. Cells were subsequently incubated at 37° C. using MTT at 0.5 mg/mL during 4 h. After removal of supernatant, formazan crystals were dissolved in isopropanol and the optical density was measured at 570 nm. CX-4945 was used as a positive control.

MCF7 (breast) = assay: In vitro cytotoxic activity assay (MTT), MCF7; format: cell-based; settings: Homo sapiens; MCF7 (breast) cells, exposed for 96 hours; read-out: IC50, concentration of compound eliciting a 50% inhibition of cell proliferation
Method: as §1

H1299 (lung) = assay: In vitro cytotoxic activity assay (MTT), H1299; format: cell-based; settings: Homo sapiens, NCI-H1299; H1299 (lung) cells, exposed for 96 hours; read-out: IC50, concentration of compound eliciting a 50% inhibition of cell proliferation
Method: as §1

HL60 (leukemia) = assay: In vitro cytotoxic activity assay (MTT), HL60; format: cell-based; settings: Homo sapiens, HL-60; HL60 (leukemia) cells, exposed for 96 hours; read-out: IC50, concentration of compound eliciting a 50% inhibition of cell proliferation
Method: as §1

MDA-MB-231 (breast) = assay: In vitro cytotoxic activity assay (MTT), MDA-MB-231; format: cell-based; settings: Homo sapiens; MDA-MB-231 (breast) cells, exposed for 96 hours; read-out: IC50, concentration of compound eliciting a 50% inhibition of cell proliferation
Method: as §1

recombinant human CK2 = biological target: T1, recombinant human CK2 (Homo sapiens, UniProt P68400); assay: CK2 Kinase Assay (33P-ATP, substrate peptide RRRDDDSDDD); format: biochemical; settings: final ATP concentration 15 μM, 10 min at 30° C., eight concentrations; read-out: protein kinase CK2 IC50
T1 construct: purchased Millipore
T1 sequence (P68400 whole entry): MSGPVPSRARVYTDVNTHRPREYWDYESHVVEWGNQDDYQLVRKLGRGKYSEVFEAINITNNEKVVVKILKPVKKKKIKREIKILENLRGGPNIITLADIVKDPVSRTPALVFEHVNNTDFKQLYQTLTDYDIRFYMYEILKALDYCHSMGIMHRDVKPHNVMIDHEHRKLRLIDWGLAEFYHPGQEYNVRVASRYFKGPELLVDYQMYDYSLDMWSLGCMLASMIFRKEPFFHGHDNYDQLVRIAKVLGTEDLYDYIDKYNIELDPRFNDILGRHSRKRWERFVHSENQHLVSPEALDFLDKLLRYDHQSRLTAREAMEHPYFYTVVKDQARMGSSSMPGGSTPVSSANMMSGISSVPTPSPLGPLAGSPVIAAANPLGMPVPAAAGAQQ
T1 sequence (P67870 whole entry partner): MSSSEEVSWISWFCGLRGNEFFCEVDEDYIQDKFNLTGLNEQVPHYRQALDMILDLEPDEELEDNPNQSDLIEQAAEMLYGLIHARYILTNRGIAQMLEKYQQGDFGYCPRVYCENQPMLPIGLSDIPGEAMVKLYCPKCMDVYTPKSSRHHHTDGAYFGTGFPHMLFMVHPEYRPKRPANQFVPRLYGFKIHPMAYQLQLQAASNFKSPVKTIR
Method: CK2 Kinase Assay was conducted using the protocol as described in Pierre F. et al; J. Med. Chem. 2011, 54, 635-654. The tested compounds in aqueous solution were added at a volume of 10 μL to a reaction mixture comprising 10 μL of assay dilution buffer (ADB; 20 mM MOPS, pH 7.2, 25 mM β-glycerol phosphate, 5 mM EGTA, 1 mM sodium orthovanadate, and 1 mM dithiothreitol), 10 μL of substrate peptide (RRRDDDSDDD, dissolved in ADB at a concentration of 1 mM), 10 μL of recombinant human CK2 (RROP-holoenzyme, 25 ng dissolved in ADB; Millipore). Reactions were initiated by the addition of 10 μL of ATP solution (90% 75 mMMgCl2, 75 μM ATP (final ATP concentration:15 μM) dissolved in ADB; 10% [γ-33P] ATP (stock 1 mCi/100 μL; 3000 Ci/mmol (Perkin-Elmer) and maintained for 10 min at 30° C. The reactions were quenched with 100 μL of 0.75% phosphoric acid and then transferred to and filtered through a phosphor cellulose filter plate (Millipore). After washing each well five times with 0.75% phosphoric acid, the plate was dried under vacuum for 5 min and, following the addition of 15 μL of scintillation fluid to each well, the residual radioactivity was measured using a Wallac luminescence counter. The IC50 values were derived from eight concentrations of test inhibitors.

PC3 (prostate) = assay: In vitro cytotoxic activity assay (MTT), PC3; format: cell-based; settings: Homo sapiens, Prostate cell; PC3 (prostate) cells, exposed for 96 hours; read-out: IC50, concentration of compound eliciting a 50% inhibition of cell proliferation
Method: as §1

HCT116 (colon) = assay: In vitro cytotoxic activity assay (MTT), HCT116; format: cell-based; settings: Homo sapiens, HCT-116; HCT116 (colon) cells, exposed for 96 hours; read-out: IC50, concentration of compound eliciting a 50% inhibition of cell proliferation
Method: as §1

MIAPaCa-2 (pancreas) = assay: In vitro cytotoxic activity assay (MTT), MIAPaCa-2; format: cell-based; settings: Homo sapiens, MIA PaCa-2; MIAPaCa-2 (pancreas) cells, exposed for 96 hours; read-out: IC50, concentration of compound eliciting a 50% inhibition of cell proliferation
Method: as §1

IC50 (recombinant human CK2): 35 nM
SMILES: O=C(O)c1ccc2c(c1)nc(Nc1cccc(Cl)c1)c1[nH]cc(C(=O)O)c12 [Compound 1, 4-((3-chlorophenyl)amino)-3H-pyrrolo[2,3-c]quinoline-1,7-dicarboxylic acid]
IC50 (A375 (melanoma)): 2200 nM | IC50 (MCF7 (breast)): 6200 nM | IC50 (H1299 (lung)): 1900 nM | IC50 (HL60 (leukemia)): 3100 nM | IC50 (MDA-MB-231 (breast)): 4600 nM | IC50 (PC3 (prostate)): 1300 nM | IC50 (HCT116 (colon)): 1700 nM | IC50 (MIAPaCa-2 (pancreas)): 1400 nM
